Test results taken from patent publication US4045563A, “Substituted 2-[pyridylalkylenesulfinyl]-benzimidazoles with gastric acid secretion inhibiting effects” (AB Hassle, priority 1975, dated 1977).

System: gastric acid secretion
Assay: Inhibition of pentagastrin-induced gastric acid secretion in anesthetized dogs (modified perfusion technique, intraduodenal test compound)
Format: in vivo
Details: 1 mg per kg body weight, dog, pentagastrin-stimulated
Experimental: To test the gastric acid secretion activity, a modified perfusion technique was performed using dogs as test animals. An anesthetized dog was fitted with one tube going through the esophagus to the stomach for instillation of fluid, and a second tube extending through the duodenum by way of the ligated pylorus for fluid drainage. Every 15 minutes, 5 ml/kg body weight of a saline solution was introduced into the test animal, and drained samples collected and titrated to pH 7.0 with 0.04N NaOH using a radiometer automatic titrator to calculate the acid output.
Gastric acid secretion was induced by pentagastrin by administering 1-2 μg/kg per hour, giving a submaximal secretory response. Test compounds in a 0.5% Methocel (methyl cellulose) suspension were introduced into the duodenum close to the ligation at least two hours following onset of stimulation, when the secretion had reached a steady level for three consecutive 15 minute periods.
The following gastric acid inhibiting effect data were obtained for a number of compounds tested according to the method described.

Q: For `[O-][S+](Cc1ccccn1)c1nc2ccccc2[nH]1` (stereo not shown) [Example 1, 2-[2-pyridylmethylsulfinyl]-benzimidazole], which “inhibited gastric acid secretion” value is on record?
A: The value was 90%.

Same assay, conditions: Canis lupus familiaris, dose 1 mg/kg, dog, pentagastrin-stimulated

Q: With `CC(c1ccccn1)[S+]([O-])c1nc2ccccc2[nH]1` (stereo not shown) [Example 16] as the molecule, how does the inhibition in vivo at 1 mg/kg read?
A: The inhibition in vivo at 1 mg/kg was 37%.

Q: How did the inhibition in vivo at 1 mg/kg turn out when `Cc1ccc2[nH]c([S+]([O-])Cc3ccccn3)nc2c1` (stereo not shown) [Example 21] was run?
A: The inhibition in vivo at 1 mg/kg was 50%.

Same assay, conditions: Canis lupus familiaris, dose 2 mg/kg, dog, pentagastrin-stimulated

Q: With `CCC(c1ccccn1)[S+]([O-])c1nc2ccccc2[nH]1` (stereo not shown) [Example 28] as the molecule, how does the inhibition in vivo at 2 mg/kg read?
A: The inhibition in vivo at 2 mg/kg was 65%.

Same assay, conditions: Canis lupus familiaris, dose 5 mg/kg, dog, pentagastrin-stimulated

Q: With `Cc1cc2nc([S+]([O-])C(C)c3ccccn3)[nH]c2cc1C` (stereo not shown) [Example 55] as the molecule, how does the inhibition in vivo at 5 mg/kg read?
A: Its inhibition in vivo at 5 mg/kg is 30%.

Q: With `CCCc1ccc2[nH]c([S+]([O-])Cc3ccccn3)nc2c1` (stereo not shown) [Example 25] as the molecule, how does the inhibition in vivo at 5 mg/kg read?
A: Its inhibition in vivo at 5 mg/kg is 15%.

Q: How did the inhibition in vivo at 5 mg/kg turn out when `CC(c1ccccn1)[S+]([O-])c1nc2ccccc2[nH]1` (stereo not shown) [Example 16] was run?
A: Its inhibition in vivo at 5 mg/kg is 96%.

Q: With `Cc1ccc2[nH]c([S+]([O-])Cc3ccccn3)nc2c1` (stereo not shown) [Example 21] as the molecule, how does the inhibition in vivo at 5 mg/kg read?
A: The inhibition in vivo at 5 mg/kg was 95%.

Q: For `Cc1cccnc1C[S+]([O-])c1nc2ccccc2[nH]1` (stereo not shown) [Example 43], which inhibition in vivo at 5 mg/kg is on record?
A: Its inhibition in vivo at 5 mg/kg is > 75%.

Q: With `[O-][S+](Cc1ccccn1)c1nc2cc(Cl)ccc2[nH]1` (stereo not shown) [Example 22] as the molecule, how does the inhibition in vivo at 5 mg/kg read?
A: Its inhibition in vivo at 5 mg/kg is 35%.

Q: `Cc1cc(C)c2nc([S+]([O-])Cc3ccccn3)[nH]c2c1` (stereo not shown) [Example 2] was tested. Which inhibition in vivo at 5 mg/kg did it give?
A: The inhibition in vivo at 5 mg/kg was 94%.

Q: With `CCc1ccc2[nH]c([S+]([O-])C(C)c3ccccn3)nc2c1` (stereo not shown) [Example 30] as the molecule, how does the inhibition in vivo at 5 mg/kg read?
A: Its inhibition in vivo at 5 mg/kg is 60%.

Q: `CCc1ccc2[nH]c([S+]([O-])Cc3ccccn3)nc2c1` (stereo not shown) [Example 3] was tested. Which inhibition in vivo at 5 mg/kg did it give?
A: The inhibition in vivo at 5 mg/kg was 50%.

Q: Which inhibition in vivo at 5 mg/kg does the source give for `[O-][S+](Cc1ccccn1)c1nc2c(Cl)cccc2[nH]1` (stereo not shown) [Example 53] here?
A: Its inhibition in vivo at 5 mg/kg is 30%.

Q: How did the inhibition in vivo at 5 mg/kg turn out when `Cc1ccc(C[S+]([O-])c2nc3cc(C)ccc3[nH]2)nc1` (stereo not shown) [Example 26] was run?
A: The inhibition in vivo at 5 mg/kg was > 75%.

Q: `CCOC(=O)c1ccc2[nH]c([S+]([O-])Cc3ccccn3)nc2c1` (stereo not shown) [Example 9] was tested. Which inhibition in vivo at 5 mg/kg did it give?
A: The inhibition in vivo at 5 mg/kg was 8%.

Q: With `CCc1ccc(C[S+]([O-])c2nc3ccccc3[nH]2)nc1` (stereo not shown) [Example 45] as the molecule, how does the inhibition in vivo at 5 mg/kg read?
A: Its inhibition in vivo at 5 mg/kg is 90%.

Q: `CCc1ccc(C[S+]([O-])c2nc3cc(C)ccc3[nH]2)nc1` (stereo not shown) [Example 44] was tested. Which inhibition in vivo at 5 mg/kg did it give?
A: The inhibition in vivo at 5 mg/kg was 95%.

Q: How did the inhibition in vivo at 5 mg/kg turn out when `CCC(c1ccccn1)[S+]([O-])c1nc2ccccc2[nH]1` (stereo not shown) [Example 28] was run?
A: Its inhibition in vivo at 5 mg/kg is 80%.

Q: Which inhibition in vivo at 5 mg/kg does the source give for `Cc1ccnc(C[S+]([O-])c2nc3cc(C)ccc3[nH]2)c1` (stereo not shown) [Example 42] here?
A: Its inhibition in vivo at 5 mg/kg is > 75%.

Same assay, conditions: Canis lupus familiaris, dose 10 mg/kg, dog, pentagastrin-stimulated

Q: For `CC(C)c1ccc2[nH]c([S+]([O-])Cc3ccccn3)nc2c1` (stereo not shown) [Example 23], which inhibition in vivo at 10 mg/kg is on record?
A: Its inhibition in vivo at 10 mg/kg is 80%.

Q: With `Cc1cc(Cl)cc2[nH]c([S+]([O-])Cc3ccccn3)nc12` (stereo not shown) [Example 4] as the molecule, how does the inhibition in vivo at 10 mg/kg read?
A: Its inhibition in vivo at 10 mg/kg is 41%.
